Experimental data: US11136328B2, “3,3-difluoropiperidine carbamate heterocyclic compounds as NR2B NMDA receptor antagonists” (Rugen Holdings (Cayman) Limited, priority 2015, dated 2021)

Tests used:
[1] = molecular target: hERG channel (Homo sapiens (Human), UniProt Q12809); experiment: hERG channel inhibition, whole cell patch clamp; format: cell-based; details: 10 μM compound
Procedure: The assay was performed on hERG channel stably expressed in HEK293 cells. The cells were cultured at 37° C. in a humidified CO2 incubator in the growth medium consisting of DMEM, 10% fetal bovine serum and antibiotics. Prior to the assay, the cells were seeded onto a 12 mm PDL-coated glass coverslip and cultured in a 35 mm Petri dish. After 16 to 40 hr culture, the cover slip was transferred into the chamber of OctaFlow perfusion system (ALA Instrument) and under a constant flow of extracellular solution (140 mM NaCl, 4 mM KCl, 1 mM MgCl2, 2 mM CaCl2, 10 mM HEPES, 10 mM D-glucose, pH 7.35, osmolarity 290). Whole cell patch clamping was performed with a glass micropipette filled with intracellular solution (120 mM KCl, 1.75 mM MgCl2, 5.4 mM CaCl2, 10 mM HEPES, 10 mM EGTA, and 4 mM ATP-K2, PH 7.2, osmolarity 310). Giga-seal was maintained during the test. The voltage control and current measurement were carried out using Axon amplifier 700B, Digidata 1440A and CLAMPEX10 software (Molecular Devices). Whole-cell hERG currents were recorded following the Petroski protocol: the cell was held at −80 mV, and the voltage step jumped from −80 to 30 mV and stay for 2 sec with a 20 ms prepulse at −40 mV. After depolarization, the voltage was decreased to −40 mV and stay for 2 sec, and returned back to −80 mV. Test compound was applied by quartz capillary tubes tip (200 μm inner diameter), and the flow rate was controlled at 2-3 ml/min with OctaFlow perfusion system. Different concentrations of the compound were applied to the cells for 5 min and the hERG current was measured three times before, during and after compound treatment. The data were analyzed using Clampfit 10 software (Molecular Devices) to generate IC50 values.

[2] = molecular target: CYP2D6 (Homo sapiens (Human), UniProt P10635); experiment: CYP P450 enzyme inhibition in pooled human liver microsomes; format: in vitro ADME; details: 10 μM compound, pooled HLM
Sequence of CYP2D6 (P10635 whole entry): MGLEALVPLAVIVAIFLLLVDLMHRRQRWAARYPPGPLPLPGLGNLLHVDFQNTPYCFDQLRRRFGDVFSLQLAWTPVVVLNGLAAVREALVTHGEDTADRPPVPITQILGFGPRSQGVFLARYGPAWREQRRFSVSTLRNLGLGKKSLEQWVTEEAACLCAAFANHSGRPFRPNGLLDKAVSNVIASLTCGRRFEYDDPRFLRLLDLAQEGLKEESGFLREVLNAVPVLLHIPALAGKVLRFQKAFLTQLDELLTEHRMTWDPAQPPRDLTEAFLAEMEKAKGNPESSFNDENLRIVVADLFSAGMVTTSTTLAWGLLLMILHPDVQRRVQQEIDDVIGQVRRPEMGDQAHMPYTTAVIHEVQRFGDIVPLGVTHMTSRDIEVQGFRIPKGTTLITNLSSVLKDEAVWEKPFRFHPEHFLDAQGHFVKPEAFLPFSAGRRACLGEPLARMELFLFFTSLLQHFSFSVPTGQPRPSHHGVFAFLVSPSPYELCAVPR
Procedure: Those CYP isoforms and their corresponding probe substrates are as follows: CYP1A2 (phenacetin, 30 μM), CYP2C9 (tolutamide, 100 μM), CYP2C19 (S-mephenytoin, 40 μM), CYP2D6 (dextromethorphan, 5 μM) and CYP3A4 (midazolam, 1 μM). All probe substrates were used at concentrations near or below their Kms. For experiment, a reaction mixture of test compound at 10 μM or in serial dilution, CYP probe substrate described above and 0.2 mg/mL pooled HLM in phosphate buffer, pH 7.4 in a final volume of 200 μL was pre-incubated at 37° C. for 10 minutes in triplicate. The reaction was initiated by addition of NADPH at final concentration of 1 mM. The reaction was terminated after 10 minutes (CYP1A2, CYP2D6 and CYP3A4) or 30 minutes (CYP2C9 and CYP2C19) by addition of 100 μL ice-cold acetonitrile with internal standard (IS). The samples were then centrifuged at 13,000 rpm and the supernatants were injected to LC-MS/MS (Agilent Technologies) to quantify the concentration of the specific metabolites of the probe substrates formed by individual CYP450 isoforms. The inhibition ratio is calculated as: (Mt−M0)/Mwater×100% in which Mt and M0 represent the concentrations of the specific probe substrate metabolite, which was formed by individual CYP450 isoform, at the beginning and end of the reaction in the presence of test compound; while Mwater represents the concentration of the specific metabolite at the end of the reaction in the absence of test compound. Test compound concentration-dependent response data experiments performed in triplicate.

[3] = system: rats; experiment: Electroconvulsive Threshold Test (ECT); format: in vivo
Procedure: (§1) Test compound E1-8.2 was administered as the free base.
Rats were administered ECS (rectangular current: 0.6 ms pulse width, 1.5 s duration, 200 Hz) via earclip electrodes connected to a constant current shock generator (Ugo Basile: type 7801). Test compounds were administered by oral gavage (p.o.) 1 hour before the test at a dose volume of 5 mL/kg.
Treatment groups of 20 rats were exposed to ECS as follows: The first animal was exposed to 30 mA of ECS. […] (increases of 5 mA) until the first tonic convulsion was observed. Once the first tonic convulsion was observed, the intensity of ECS was decreased by 2 mA for the next animal and then decreased or increased by 2 mA from animal to animal depending on whether the previous animal convulsed or not. If the first animal did convulse (tonic convulsions) within 5 seconds, animal no 2 is exposed to 25 mA, etc. . . . (decreases of 5 mA) until the absence of tonic convulsions was observed. At this point, the intensity of ECS was increased by 2 mA for the next animal and then decreased or increased by 2 mA from animal to animal depending on whether the previous animal convulsed or not. The minimum current intensity applied is 5 mA and the maximum 95 mA. The first 5 animals serve to approach threshold current and were not included in the analysis. The results are presented as the mean current intensity administered to the final 15 animals of a group. The test was performed blind. A positive percent change indicates an anticonvulsant effect. A negative percent change indicates a proconvulsant effect. The test substance was evaluated at 4 doses, typically using 0.5% dimethylsulfoxide, 4% hydroxypropyl-b-cyclodextrin water as a vehicle, and administered p.o. 60 minutes before ECS, and compared with a vehicle control group. Diazepam (16 mg/kg p.o.), administered under the same experimental conditions, was used as reference substance. The experiment included 6 groups. Data with the test substance was analyzed by comparing treated groups with vehicle control using one-way ANOVA followed by Dunnett's t tests.

[4] = system: rats; experiment: Pentylenetetrazole (PTZ) Seizure Test; format: in vivo; details: 10 mg/kg p.o. 30 min before PTZ 100 mg/kg s.c.
Procedure: Rats, placed in individual macrolon cages (25×19×13 cm), were injected with pentylenetetrazole (PTZ) (100 mg/kg s.c.). The occurrence and latency of clonic and tonic convulsions and death were noted over a 30 minute period. 15 rats were studied per group. The test was performed blind.
as §1
Compounds were evaluated typically using 0.5% dimethylsulfoxide, 4% hydroxypropyl-b-cyclodextrin water as a vehicle at 1 or more doses (e.g., 1, 3 and 10 mg/kg), administered p.o. 30 minutes before PTZ, and compared with a vehicle control group. Diazepam (16 mg/kg p.o.), administered 60 minutes before PTZ, was used as reference substance. The experiment was performed over 2 separate sub-experiments with N=7 to 8 animals per group and per sub-experiment. Quantitative data (latencies) with the test substance was analyzed by comparing treated groups with vehicle control using Kruskal-Wallis test followed by Mann-Whitney U test. Quantitative data with the reference substance was analyzed using Mann-Whitney U test. Quantal data (frequencies) was analyzed by comparing treated groups with vehicle control using Fisher's Exact Probability tests (*=p<0.05; **=p<0.01; ***=p<0.001).

[5] = system: rats; experiment: Forced Swim Test in rats; format: in vivo, Wistar rats
Source text: (§2) The forced swim test (FST) also known at the behavioural despair test was used to evaluate antidepressant activity (Porsolt et al., 1977 Arch. Int. Pharmacodyn. 229: 327-336, Porsolt et al., 1977, Eur. J. Pharmacol. 47:379-391). Mice or rats that are forced to swim in a situation from which they cannot escape, rapidly become immobile. Drugs with antidepressant activity, such as imipramine, reduce the amount of time spent in the immobile state. Therefore, the amount of immobility time during a test conducted after drug administration represents a useful indicator of antidepressant activity (Lucki et al 2001 Psychopharmacology 155:315-322; Porsolt et al., 1977, Nature 266:730-732).
Male Wistar rats weighing 197-251 g were used for the rat test. Rats were evaluated according to a two-session procedure with a swimming session of 15 minutes on the first day of the experiment (Session 1) followed 24 hours later by a 5-minute swimming test (Session 2). […] Rats were placed in the water 24 h later for 5 minutes (Session 2) and the duration of immobility was measured.
(§3) Animals were observed by a blinded observer. […] The amount of time each animal spent in the immobile state (and the latency to the first bout of immobility) was recorded and used for statistical analysis of compound effect. […]

[6] = system: mice; experiment: Forced Swim Test in mice; format: in vivo
Source text: as §2
Mice were evaluated in a single swimming test session of 6 minutes. Mice were placed in a transparent plastic cylinder 24 cm high with a diameter of 13 cm containing 10 cm of water with ambient temperature control generally from 22±2° C. Mice were placed in the water for 6 minutes and the duration of immobility during the last 4 minutes was measured.
as §3, with “effect. Group differences were evaluated by student's t-test (reference substance) or one-way ANOVA followed by post-hoc Dunnett's test (test substances).” for “effect.”
Male mice (strain NLMN) weighing 25-35 g were used for testing. […] The mice were videotaped for 6 minutes, and the last 4 minutes of video were analyzed by a blinded observer off-line. […] The amount of time each animal spent in the immobile state was recorded and used for statistical analysis of compound effect. Group differences were evaluated by student's t-test or one-way ANOVA followed by post-hoc Dunnett's test.
Mice were individually placed in a cylinder (height=24 cm; diameter=13 cm) containing 10 cm water (22° C.) from which they cannot escape. The mice were placed in the water for 6 minutes and the duration of immobility during the last 4 minutes was measured. […]

Sequence of hERG channel (Q12809 whole entry): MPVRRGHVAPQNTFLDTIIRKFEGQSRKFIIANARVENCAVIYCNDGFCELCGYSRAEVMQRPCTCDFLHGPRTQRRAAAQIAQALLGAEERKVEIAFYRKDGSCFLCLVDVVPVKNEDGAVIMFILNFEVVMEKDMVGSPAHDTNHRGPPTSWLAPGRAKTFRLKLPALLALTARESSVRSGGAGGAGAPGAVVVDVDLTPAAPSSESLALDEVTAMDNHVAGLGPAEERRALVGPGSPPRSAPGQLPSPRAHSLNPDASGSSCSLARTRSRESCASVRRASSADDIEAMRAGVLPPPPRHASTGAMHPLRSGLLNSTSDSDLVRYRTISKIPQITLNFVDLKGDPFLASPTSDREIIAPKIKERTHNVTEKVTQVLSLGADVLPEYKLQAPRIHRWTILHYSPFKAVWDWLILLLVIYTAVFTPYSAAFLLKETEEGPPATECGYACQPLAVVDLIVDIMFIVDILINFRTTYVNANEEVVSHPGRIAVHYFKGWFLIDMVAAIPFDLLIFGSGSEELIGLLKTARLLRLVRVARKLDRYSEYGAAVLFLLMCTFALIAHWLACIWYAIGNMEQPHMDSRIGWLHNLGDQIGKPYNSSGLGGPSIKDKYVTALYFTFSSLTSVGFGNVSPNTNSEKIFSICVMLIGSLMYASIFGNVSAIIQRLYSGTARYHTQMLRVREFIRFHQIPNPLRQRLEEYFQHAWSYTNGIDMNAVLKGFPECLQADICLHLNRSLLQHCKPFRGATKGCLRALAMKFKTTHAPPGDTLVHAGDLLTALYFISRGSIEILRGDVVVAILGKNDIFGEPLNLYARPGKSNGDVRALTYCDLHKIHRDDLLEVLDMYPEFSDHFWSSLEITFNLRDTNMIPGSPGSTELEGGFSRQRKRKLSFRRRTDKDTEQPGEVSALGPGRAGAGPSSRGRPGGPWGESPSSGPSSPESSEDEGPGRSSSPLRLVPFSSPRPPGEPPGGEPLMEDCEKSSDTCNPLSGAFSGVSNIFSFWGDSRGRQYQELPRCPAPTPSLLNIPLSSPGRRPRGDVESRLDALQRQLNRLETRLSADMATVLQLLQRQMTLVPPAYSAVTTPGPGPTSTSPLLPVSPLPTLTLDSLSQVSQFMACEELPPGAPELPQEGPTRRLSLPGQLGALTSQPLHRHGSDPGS

Row | Compound | hERG @ 10 μM (%) [1] | CYP2D6 @ 10 μM (%) [2] | also measured
1 | O=C(OCc1ccc(F)cc1)N1CC[C@H](CNc2nccn3cnnc23)C(F)(F)C1 [Compound E1-1.4, R-4-fluorobenzyl 4-(([1,2,4]triazolo[4,3-a]pyrazin-8-ylamino)methyl)-3,3-difluoropiperidine-1-carboxylate] | 11% | 19% | –
2 | CN1C(=O)CN=C(c2ccccc2)c2cc(Cl)ccc21 [diazepam, reference compound] | – | – | activity on electroconvulsive threshold ([3]; 16 mpk p.o.): showed the expected anticonvulsant activity
3 | FC(F)(F)c1ccc(C(F)(F)CN2CCC(Nc3ncnc4[nH]ncc34)CC2)cc1 [LX-1, reference compound] | – | 93% | –
4 | Cc1ccc(COC(=O)N2CC[C@H](CNc3ncc4cn[nH]c4n3)C(F)(F)C2)cc1 [Compound E1-8.2, (+)-R-4-methylbenzyl-4-((1H-pyrazolo[3,4-d]pyrimidin-6-ylamino)methyl)-3,3-difluoropiperidine-1-carboxylate] | 57% | 83% | activity on electroconvulsive threshold ([3]; 0.5 and 2 mpk p.o., free base): modest proconvulsant activity; activity on electroconvulsive threshold ([3]; 10 and 20 mpk p.o., free base): anticonvulsant activity
5 | Cc1ccc(COC(=O)N2CC[C@H](CNc3cnccn3)C(F)(F)C2)cc1 [Compound E1-21.2, R-4-methylbenzyl 3,3-difluoro-4-((pyrazin-2-ylamino)methyl)piperidine-1-carboxylate] | 27% | 97% | –
6 | Cc1ccc(COC(=O)N2CC[C@@H](CNc3nccn4cnnc34)C(F)(F)C2)cc1 [Compound E2-1.2, (−)-S-4-methylbenzyl 4-(([1,2,4]triazolo[4,3-a]pyrazin-8-ylamino)methyl)-3,3-difluoropiperidine-1-carboxylate] | 22% | – | –
7 | Cc1ccc(COC(=O)N2CC[C@H](CNc3nc4ccccn4n3)C(F)(F)C2)cc1 [Compound E1-9.2, (+)-R-4-methylbenzyl 4-(([1,2,4]triazolo[1,5-a]pyridin-2-ylamino)methyl)-3,3-difluoropiperidine-1-carboxylate] | 38% | 14% | –
8 | Cc1ccc(COC(=O)N2CC[C@H](CNc3cncc4nncn34)C(F)(F)C2)cc1 [Compound E1-2.2, R-4-methylbenzyl 4-(([1,2,4]triazolo[4,3-a]pyrazin-5-ylamino)methyl)-3,3-difluoropiperidine-1-carboxylate] | 32% | 18% | –
9 | Cc1ccc(COC(=O)N2CC[C@H](CNc3cnc(C)cn3)C(F)(F)C2)cc1 [Compound E1-21.26, R-4-methylbenzyl 3,3-difluoro-4-((5-methylpyrazin-2-ylamino)-methyl)piperidine-1-carboxylate] | 39% | 32% | activity on electroconvulsive threshold ([3]; 3 and 10 mpk p.o., mesylate salt): anticonvulsant activity; change in latency to death [4]: +31%; change in number of deaths vs vehicle controls [4]: −82%
10 | CN(C)CCCN1c2ccccc2CCc2ccccc21 [imipramine] | – | – | antidepressant activity (immobility time) ([5]; 32 mpk i.p. 3 times: 24 h, 4 h and 30 min before Session 2): showed the expected antidepressant activity; antidepressant activity (immobility time) ([5]; 64 mpk p.o. 3 times: 24 h, 4 h and 60 min before Session 2): showed the expected antidepressant activity; antidepressant activity (immobility time) ([6]; 32 mpk i.p. once 30 min before the test): showed the expected antidepressant activity; antidepressant activity (immobility time) ([6]; 64 mpk p.o. once 60 min before the test): showed the expected antidepressant activity; antidepressant activity (immobility time) ([6]; 128 mpk p.o. once 60 minutes before the test on Day 7): showed the expected antidepressant activity
11 | O=C(OCc1ccc(Cl)cc1)N1CC[C@H](CNc2nccn3cnnc23)C(F)(F)C1 [Compound E1-1.3, R-4-chlorobenzyl 4-(([1,2,4]triazolo[4,3-a]pyrazin-8-ylamino)methyl)-3,3-difluoropiperidine-1-carboxylate] | 19% | 37% | –
12 | Cn1c(=O)c2[nH]cnc2n(C)c1=O [theophylline, reference compound] | – | – | activity on electroconvulsive threshold ([3]; 128 mpk p.o.): showed the expected proconvulsant activity
